From patent publication US20040102622A1, “Modulation of hepatocyte growth factor receptor expression” (Isis Pharmaceuticals Inc., priority 2002, published 2004)
Strand notation (5' to 3'): a small letter for the sugar, then the base; units joined by * are phosphorothioate-linked, units joined directly phosphodiester-linked; [ ] holds rarer units or linkages, { } end groups; capitals alone tell only the bases. e = 2'-O-(2-methoxyethyl) (MOE); [5mC] = 5-methylcytosine; d = 2'-deoxy (DNA)

Tested on: human hepatocyte growth factor receptor mRNA
Assay: Inhibition of human hepatocyte growth factor receptor mRNA levels in T-24 cells, quantitative real-time PCR; further: test concentration or dose not given here
Conditions: averages from three experiments

Substance	% INHIB (inhibition of human hepatocyte growth factor receptor mRNA levels)
209529 (antisense e[5mC]*e[5mC]*e[5mC]*eA*eG*d[5mC]*d[5mC]*dA*d[5mC]*dA*dT*dA*dT*dG*dG*eT*e[5mC]*eA*eG*e[5mC]) [compound 209529]	87%
209530 (antisense eT*eT*eA*e[5mC]*eA*dG*dG*dA*dT*d[5mC]*d[5mC]*dA*d[5mC]*dA*dT*eA*eG*eG*eA*eG) [compound 209530]	81%
209531 (antisense eT*eA*eA*eG*eT*d[5mC]*dA*dA*dT*dT*dT*dT*d[5mC]*dA*dA*eT*eT*eT*eA*eA) [compound 209531]	13%
209532 (antisense eA*eG*eT*eA*e[5mC]*dT*dA*dA*dT*dA*dA*dA*dA*dG*dA*eT*eT*eT*eG*eG) [compound 209532]	0%
209533 (antisense e[5mC]*eA*e[5mC]*e[5mC]*eA*d[5mC]*dT*dG*dG*d[5mC]*dA*dA*dA*dG*d[5mC]*eA*eA*eA*eA*eT) [compound 209533]	47%
209534 (antisense eA*eG*e[5mC]*eA*eT*dT*dA*d[5mC]*dT*dT*d[5mC]*dA*dT*dA*dT*eA*eA*eG*eG*eG) [compound 209534]	35%
209535 (antisense eA*eT*eA*eA*e[5mC]*dA*dA*dT*dA*d[5mC]*dA*dA*dG*dT*d[5mC]*e[5mC]*eT*eA*eT*eG) [compound 209535]	39%
209536 (antisense e[5mC]*e[5mC]*eT*e[5mC]*e[5mC]*d[5mC]*dA*dT*dA*d[5mC]*dT*dA*dG*dA*dG*eA*eA*eG*eT*eA) [compound 209536]	36%
209537 (antisense eA*eG*eA*eG*eG*dT*dT*dT*dA*dT*d[5mC]*dT*dG*d[5mC]*d[5mC]*eA*eA*eA*eA*e[5mC]) [compound 209537]	43%
209538 (antisense eT*eG*eT*eG*eA*d[5mC]*dT*dT*dA*d[5mC]*d[5mC]*d[5mC]*dT*dA*dT*eT*eA*eA*eA*eG) [compound 209538]	28%
209539 (antisense eG*e[5mC]*eT*eT*e[5mC]*d[5mC]*d[5mC]*d[5mC]*dA*dT*dT*dG*d[5mC]*dT*dG*eT*eT*eA*eG*eG) [compound 209539]	57%
209540 (antisense e[5mC]*eA*e[5mC]*eA*eT*d[5mC]*d[5mC]*d[5mC]*dT*dT*dG*dT*dA*dA*dG*eT*eT*eG*eG*eA) [compound 209540]	52%
209541 (antisense eA*e[5mC]*e[5mC]*eA*eA*dG*dT*dA*d[5mC]*dT*dG*dT*dA*dA*dG*eA*eG*eA*eG*eG) [compound 209541]	40%
209542 (antisense e[5mC]*eT*eT*eG*e[5mC]*dT*dT*d[5mC]*d[5mC]*dA*d[5mC]*dT*dA*dA*dA*eA*eA*eT*eG*eA) [compound 209542]	74%
209543 (antisense eG*eA*eT*eG*e[5mC]*d[5mC]*dA*d[5mC]*d[5mC]*dG*dT*dG*d[5mC]*dA*d[5mC]*eT*eG*eT*eG*e[5mC]) [compound 209543]	85%
209544 (antisense eT*eA*eA*eT*eA*dG*dT*dG*d[5mC]*dA*dA*dT*dT*dT*dT*eG*eG*e[5mC]*eA*eA) [compound 209544]	82%
209545 (antisense eA*eA*eT*eA*e[5mC]*dA*dA*dG*dT*d[5mC]*d[5mC]*dT*dA*dT*dA*eA*eT*eA*eG*eT) [compound 209545]	10%
209546 (antisense eA*eA*eT*eT*e[5mC]*dA*dA*dG*dT*dT*dT*dT*dG*dG*dA*e[5mC]*eT*e[5mC]*e[5mC]*eA) [compound 209546]	76%
